From PubChem BioAssay AID179 (DTP/NCI, 2004) come the findings set out here.

Each structure is given as a SMILES string. Active and inactive are the calls of the source.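 The calls were made as follows: active = compounds giving half or more protection of infected cells from virus-caused growth loss, again on retest; inactive = the rest.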

The assay deals with CEM cells HIV-1 protection, formazan growth assay. Description: NCI AIDS Antiviral Assay. The settings on record: for IC50: measured here: growth of uninfected CEM cells. Put shortly:
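CEM (human) cells, HIV-1 infected vs uninfected, 5-point dosing, formazan growth read-out. Retest threshold 50% protection.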

Consider `CCc1cccc(C)c1NC(=O)CCc1n[nH]c(=S)o1`, for which the EC50 (usually the concentration needed to bring the measured effect to its halfway point) is greater than 617 µM and the IC50 (as a rule, the point on the concentration scale where inhibition reaches its midpoint) is greater than 617 µM.

As to `O=C1C(Cl)N(c2ccccc2[N+](=O)[O-])C1c1c[nH]c2ccccc12` (stereo not drawn), the EC50 was greater than 275 µM and the IC50 stood at 132 µM. In the case of `O=C(/C=C1/NC(=O)CS1)Nc1ccccc1`, the EC50 was greater than 380 µM and the 50% inhibitory concentration (IC50) stood at 182 µM. As for `O=[N+]([O-])c1ccc(C2OCC3CSCN32)cc1` (stereo not drawn), the EC50 was greater than 39.8 µM and the IC50 was greater than 39.8 µM. In the case of `CO[C@@H]1C[C@H]2[C@@H]3CC[C@H]([C@@H](C)CO)[C@@]3(C)CC[C@@H]2[C@@]2(C)CC[C@H]3C[C@]312`, the EC50 is greater than 200 µM and the IC50 turned out to be 102 µM. `O=C(Nc1ccc(N=C(Nc2ccccc2)c2ccccc2)cc1)c1ccc(C(=O)Nc2ccc(N=C(Nc3ccccc3)c3ccccc3)cc2)cc1`: the EC50 was greater than 200 µM and the IC50 stood at 18.2 µM. Consider `CCCCCCCCCCCCCCCC(=O)OCC1OC(OC)C2NP(=O)(N(CCCl)CCCl)OC1C2O` (stereo not drawn), for which the EC50 was greater than 8.51 µM and the IC50 was 0.155 µM.

Regarding `COc1ccc(C(=C2C(=O)N(c3ccccc3)C(=O)C2=C(C)C)c2ccc(OC)cc2)cc1`, the EC50 was greater than 200 µM and the IC50 is 3.39 µM. Consider `O=C1C2C(C(=O)N1c1ccccc1)C1c3ccccc3C2C2C(=O)N(c3ccccc3)C(=O)C21` (stereo not drawn), for which the result was inactive.

On to `Nc1ccc(N=Nc2ccc(CCc3ccc(N=Nc4ccc(N)c5cc(S(=O)(=O)O)ccc45)cc3S(=O)(=O)O)c(S(=O)(=O)O)c2)c2ccc(S(=O)(=O)O)cc12`, for which the EC50 was greater than 145 µM and the 50% inhibitory concentration (IC50) was found to be 53.7 µM. The like results for `Cc1cn(C2CC(N=[N+]=[N-])C(COC(=O)CCCCCCCCCCOc3ccccc3)O2)c(=O)[nH]c1=O` (stereo not drawn) were, in that order, 0.0468 µM and 110 µM. As to `CC1=N/C(=C\c2cccc(C#N)c2)C(=O)O1`, the EC50 was greater than 170 µM and the IC50 turned out to be 97.7 µM. Turning to `CC(C)CC(NC=O)C(=O)NC(Cc1ccccc1)NC(=O)CNC(=O)C(C)NC(=O)C(N)Cc1ccc(O)cc1` (stereo not drawn), the EC50 is 141 µM and the IC50 was 151 µM.

For the compound `COC1=CC(=O)C(C#CCOCc2ccccc2)=CC1=O`, the EC50 is greater than 200 µM and the IC50 worked out at 14.8 µM.

Regarding `Cn1c(=O)c2c(nc3n2CCC(=O)N3CCCCl)n(C)c1=O`, the EC50 is greater than 200 µM and the IC50 is 166 µM.

In the case of `Clc1ccc(C2=NOC3C4CCC(C4)C23)cc1` (stereo not drawn), the outcome was inactive. For `O=C(O)CC(SSCc1ccccc1)C(=O)O` (stereo not drawn), the EC50 is greater than 200 µM and the IC50 was greater than 200 µM. In the case of `O=c1c2ccccc2oc2c(Cl)cc(Cl)cc12`, the EC50 was greater than 490 µM and the half-maximal inhibitory concentration (IC50) stood at 263 µM.

Take `OCc1c[te]c(-c2ccccc2)c1`: the result was inactive. As for `Nc1ccc2ncc(NCc3ccc(F)cc3)nc2c1`, the EC50 was greater than 135 µM and the IC50 turned out to be 69.2 µM. The like results for `Nc1ccc2c3c(cccc13)C(=O)N(CCCBr)C2=O` were, in that order, greater than 200 µM and 7.08 µM.

Turning to `CCN(CC)CCCCC1CCN(CC(=O)N2c3ccccc3NC(=O)c3ccccc32)CC1`, the EC50 is greater than 282 µM and the IC50 is 158 µM. Take `CCOC(=O)c1ccc(Nc2nc3ccccc3nc2C(=O)OCC)cc1`: the EC50 was greater than 200 µM and the half-maximal inhibitory concentration (IC50) is greater than 200 µM. Take `O=C1C2=C(c3ccccc31)C(c1cccc(Cl)c1)NC(=S)N2` (stereo not drawn): the EC50 is greater than 57.5 µM and the IC50 amounted to 35.5 µM. For `O=C(c1cc(Cl)ccc1Cl)N1CCN(c2ccc(Cl)c(Cl)c2)CC1`, in that order: greater than 200 µM and 25.1 µM. Consider `O=C(O)CCCCC1CCSS1` (stereo not drawn), for which the EC50 is 186 µM and the IC50 was greater than 200 µM.

On to `O/N=C1/C(=C/c2ccccc2)CCCC1C(NO)c1ccccc1` (stereo not drawn), for which the EC50 is greater than 81.3 µM and the IC50 was greater than 81.3 µM. Regarding `C[C@@H](NS(=O)(=O)c1ccc(NC(=O)c2ccccc2)cc1)C(=O)O`, the result was inactive.

As to `O=c1/c(=C/c2ccco2)sc2nc3ccccc3n12`, the EC50 was greater than 3.89 µM and the IC50 was greater than 3.89 µM.

On to `O=c1cc(-c2ccccc2)oc2cc(OCCSCCCCCCCCCCSCCOc3ccc4c(=O)cc(-c5ccccc5)oc4c3)ccc12`, for which the EC50 was greater than 1.95 µM and the IC50 is greater than 1.95 µM.

As to `O=C(O)c1cc2c(cc1CC(Cc1ccccc1)C(=O)O)CCC2` (stereo not drawn), the outcome was inactive. On to `CC(=O)Nc1c(C#N)c2n(c1C(=O)Nc1ccc(S(N)(=O)=O)cc1)CCC2`, for which the EC50 was greater than 200 µM and the IC50 is greater than 200 µM. `CC(C)CCC[C@@H](C)C1CCC2[C@@H]3CC=C4C[C@@H](OP(=O)(O)O)CC[C@]4(C)C3CC[C@@]21C` (stereo partly drawn): the EC50 is greater than 28.2 µM and the concentration for half-maximal inhibition (IC50) was greater than 28.2 µM.

As for `O=S(=O)(O)c1cc(N=Nc2cc(S(=O)(=O)O)c3cccnc3c2O)ccc1/C=C/c1ccc(N=Nc2cc(S(=O)(=O)O)c3cccnc3c2O)cc1S(=O)(=O)O.[Cu+2].[Na+]`, the EC50 was greater than 10.7 µM and the IC50 worked out at 1.2 µM. Consider `CC(=O)Oc1cc(OC(C)=O)c2c(c1C)CC[C@@H]1[C@@H]2CC[C@]2(C)[C@@H](OC(C)=O)CC[C@@H]12`, for which the EC50 was greater than 200 µM and the IC50 was 18.2 µM. Regarding `CCOP(=S)(OCC)Oc1ccc(Sc2ccc(OP(=S)(OCC)OCC)cc2)cc1`, the EC50 was greater than 200 µM and the IC50 came out at 30.9 µM.

In the case of `S=c1n(-c2ccc(Cl)cc2)c2nc3ccccc3nc(/c2=N\Nc2cc(Cl)ccc2Cl)n1-c1ccccn1`, the EC50 is greater than 200 µM and the IC50 is 18.2 µM. For `Cc1cc2nn(C3CCCO3)nc2cc1C` (stereo not drawn), the EC50 was greater than 200 µM and the IC50 was greater than 200 µM. As for `c1sc(NC2=NCCO2)c2c1CCCC2`, the EC50 was greater than 200 µM and the IC50 was determined as 166 µM. As to `CCOc1cc2c(cc1O)C(O)C[C@@H]1[C@@H]2CC[C@]2(C)[C@@H](O)CC[C@@H]12` (stereo partly drawn), the EC50 is greater than 200 µM and the IC50 was found to be 0.0776 µM. Turning to `O=c1c2ncn(COCCCl)c2n(-c2ccccc2)c(=S)n1-c1ccccc1`, the outcome was inactive. `COc1ccc(C(=O)C(C(=O)CCC(=O)Nc2cccc(Cl)c2)c2ccc(OC)cc2)cc1` (stereo not drawn): the EC50 was greater than 15.5 µM and the IC50 was greater than 15.5 µM.

`CC(=O)OCC(C)C1=C(OC(C)=O)C(=O)C2(C)C/C=C(/C)CC/C=C(\C)CCC(OC(C)=O)C(C)CCC12` (stereo not drawn): the EC50 was greater than 200 µM and the IC50 worked out at 14.5 µM. With `Nc1ccc(C2CCC(C(=O)O)N2)cc1` (stereo not drawn), the EC50 is greater than 200 µM and the IC50 was greater than 200 µM. Take `CC1=C[C@H]2C3=C(OC(C)(C)[C@H]2CC1)C(=O)c1c(cc(O)c(C)c1O)C3=O`: the EC50 was greater than 182 µM and the IC50 is 34.7 µM. The like results for `CCOC(=O)CCC(NC(=O)c1ccc(Nc2nc3cc(C(F)(F)F)ccc3nc2-c2ccccc2)cc1)C(=O)OCC` (stereo not drawn) were, in that order, greater than 200 µM and 8.13 µM.

For `O=C(O)CCCc1ccc(N(CCCl)OCCCl)cc1`, the EC50 is greater than 200 µM and the IC50 was determined as 21.9 µM. Take `CCCCc1ccc(-n2sc3ncccc3c2=O)cc1`: the EC50 was 1.74 µM and the IC50 is 8.32 µM. Take `Nc1cc(Cl)ccc1S`: the EC50 was greater than 200 µM and the IC50 is 13.8 µM.

Regarding `COc1ccc(/C=C/C(=O)c2sc(-n3nc(-c4ccccc4)cc3-c3ccccc3)nc2C)cc1`, the EC50 is greater than 11 µM and the IC50 is greater than 11 µM. For the compound `COc1ccc2nc3cc([N+](=O)[O-])ccc3c(Nc3ccc(S(=O)(=O)NC(C)=O)cc3)c2c1`, the EC50 is greater than 200 µM and the IC50 was found to be 75.9 µM. For `N#Cc1ccc(Nc2cnc3cc(N)ccc3n2)cc1`, in that order: greater than 20 µM and greater than 20 µM. For `CC(c1ccccc1)N1CC(=O)N([C@H](C)c2ccccc2)C1=O` (stereo partly drawn), in that order: greater than 200 µM and greater than 200 µM.

For the compound `O=C(/C=C/c1ccco1)c1ccc(NCc2nc3ccccc3[nH]2)cc1`, the EC50 is greater than 20.9 µM and the IC50 is greater than 20.9 µM.

Take `CCOC(=O)c1nc2cc(C(F)(F)F)ccc2nc1Oc1ccc(F)cc1`: the EC50 is greater than 200 µM and the IC50 was 186 µM. In the case of `Cc1cn(COCC[Se]c2ccccc2)c(=O)[nH]c1=O`, the EC50 is 186 µM and the IC50 was greater than 200 µM.

Turning to `COc1ccc(C2SC(=S)N(c3ccc(Cl)cc3)N2c2ccc(Cl)cc2)cc1` (stereo not drawn), the EC50 was greater than 200 µM and the IC50 is 24 µM. As for `CS(=O)(=O)CCC1CCC(=O)O1` (stereo not drawn), the EC50 was greater than 200 µM and the concentration for half-maximal inhibition (IC50) is 182 µM. `S=c1[nH]nc(Cn2c3ccc(Br)cc3c3nc4ccccc4nc32)n1C1CCCCC1`: the EC50 was greater than 200 µM and the IC50 was determined as 51.3 µM.

As for `Cc1nnc(NS(=O)(=O)c2ccc(N=Nc3c(N)n(C)c(=O)n(C)c3=O)cc2)s1`, the outcome was inactive. On to `COC[C@@H](N=CN1CCc2ccccc2C1)c1ccccc1`, for which the EC50 was greater than 324 µM and the IC50 was greater than 324 µM. In the case of `ClCCCSSCCCCl`, the EC50 is greater than 200 µM and the IC50 is 31.6 µM. As to `C[C@H]1OC(=O)[C@@H]2N=NN(Cc3ccccc3)[C@H]12`, the outcome was inactive.

Turning to `S=C(N/N=C(/c1ccccc1)c1ccccn1)N1CCCCCC1`, the EC50 was greater than 0.2 µM and the IC50 was determined as 0.115 µM.

In the case of `CC(=O)[O-].[Mn+3].[O-]c1ccc(Cl)cc1C=NCCN=Cc1cc(Cl)ccc1[O-]`, the EC50 is greater than 240 µM and the 50% inhibitory concentration (IC50) was found to be 12 µM. Turning to `O=S(=O)(O)C1CC2NC3C4CCCC(S(=O)(=O)O)C4C(Nc4ccccc4)CC3N(c3ccccc3)C2CC1Nc1ccccc1` (stereo not drawn), the EC50 is 56.2 µM and the IC50 is greater than 100 µM. Regarding `Nc1ccc2c(O)cc(=O)[nH]c2n1`, the EC50 is greater than 200 µM and the IC50 was greater than 200 µM. In the case of `N#Cc1c(N2CCCC2)ncn(Cc2ccccc2)c1=O`, the EC50 is greater than 200 µM and the IC50 was greater than 200 µM.

On to `Cc1cc(Cl)ccc1N=C1NC(=O)C(CC(=O)Nc2cccc(Cl)c2)S1` (stereo not drawn), for which the result was inactive.

With `CCOC(=O)C(=O)Nc1ccccc1C`, the EC50 is greater than 34.7 µM and the IC50 was greater than 34.7 µM.

On to `CCOP(=S)(N/N=C1/C2(C)CCC(C2)C1(C)C)OCC` (stereo not drawn), for which the EC50 is greater than 200 µM and the IC50 is 20 µM.
